One experiment relates to K-562. Put plainly: Cell growth inhibition assay (CellTiter-Glo), K-562. In kind it is cell-based, human. The following applies: K-562 cells, 4 days; for GI50: Homo sapiens, K562, 96 h, half-maximal growth inhibition; for K-562 TGI: total growth inhibition. How it is done: (§1) Cell Growth Inhibition Assay
(§2) The human leukemia cell lines MV-4-11, THP-1 and K-562 were employed to characterize the effect of BET inhibitors on cellular proliferation and viability. Cells were obtained from the American Type Culture Collection (ATCC) and cultured at 37° C. in a humidified 5% CO2 incubator in the following media: MV-4-11: DMEM high glucose (Animed #1-26F01-I), 10% FCS (Animed #2-01F26-I), 4 mM L-Glutamine (Animed #5-10K50), 1 mM Sodium Pyruvate (Animed # G03625P), 1× Penicillin-Streptomycin (Animed # F12478P); K-562: Iscove's MEM (Animed #1-28F16-I), 10% FCS (Animed #2-01F26-I), 4 mM L-Glutamine (Animed #5-10K50), 1× Penicillin-Streptomycin (Animed # F12478P); THP-1: RPMI-1640 (Animed #1-41F01-I), 10% FCS (Animed #2-01F26-I), 2 mM L-Glutamine (Animed #5-10K50), 10 mM HEPES (Animed #5-31F100), 1 mM Sodium Pyruvate (Animed # G03625P), 1× Penicillin-Streptomycin (Animed # F12478P). The AML lines MV-4-11 and THP-1 are very sensitive to BET inhibitors and show massive cell death upon BET inhibition (Zuber et al., Nature, 478 (2011), 524-8). Compound-mediated suppression of cell proliferation/viability was assessed by quantification of cellular ATP levels using the CellTiter-Glo (CTG) reagent (Promega). Briefly, cells were seeded in 20 μl fresh medium into 384-well plates, followed by addition of 5 μL medium containing compound dilutions at 5-fold their final intended concentration. Dose-response effects were assessed by 3-fold serial dilutions of the test compound, starting at 10 μM. Following incubation of the cells for 4 days at 37° C. and 5% CO2, the effect of inhibitors on cell viability was quantified following addition of 20 μl CTG and luminescence quantification (integration time: 100 ms) as per vendor manual, using a correspondingly equipped Tecan M200 multi-mode platereader (TECAN, Switzerland). For data analysis, the assay background value determined in wells containing medium, but no cells, was subtracted from all data points. To enable differentiation of cytotoxic from cytostatic compounds, the number of viable cells is assessed relative to that observed at the time of compound addition using a separate cell plate (day 0). The effect of a particular test compound concentration on cell proliferation/viability is expressed as percentage of the background- and day 0-corrected luminescence reading obtained for cells treated with vehicle only (DMSO, 0.1% final concentration), which is set as 100%, whereas that luminescence reading for wells containing medium is set as −100%. Compound concentrations leading to half-maximal (IC50) and total growth inhibition (TGI) were determined using standard four parameter curve fitting.
A general note: ATP-based viability assays read luminescence as a measure of living cells.

In another experiment the target is CREBBP (Homo sapiens (Human), UniProt Q92793). Kind of experiment: AlphaScreen in-vitro binding assay for CREBBP. The following applies: 324 nM His-CREBBP (1081-1197), acetyl-histone H4 (AcK 5, 8, 12) peptide. How it is done: AlphaScreen In-Vitro Binding Assay for CREBBP
In order to assess bromodomain selectivity, we set up a binding assay using the bromodomain encoded by the CREBBP gene. […] The assay was started by stepwise addition of 4.5 μL per well of bromo domain protein (50 mM HEPES, pH 7.5, 0.005% Tween20, 0.02% BSA, 150 mM NaCl, 324 nM His-CREBBP (1081-1197) (custom production at Viva Biotech Ltd.)) and 4.5 μL per well of peptide solution (50 mM HEPES, pH 7.5, 0.005% Tween20, 0.02% BSA, 150 mM NaCl, 120 nM acetyl-histone H4 (AcK 5, 8, 12) (Biosyntan GmbH)). Reactions were incubated at 30° C. for 35 minutes. Subsequently 4.5 μL per well detection mix (50 mM HEPES, pH 7.5, 0.005% Tween20, 0.02% BSA, 150 mM NaCl, 45 μg/ml Ni-chelate acceptor beads, 45 μg/mL streptavidin-donor beads) (Perkin Elmer)) were added. After 60 minutes incubation at room temperature, plates were measured in a Perkin Elmer EnVision multilabel reader. IC50 values were determined from percent inhibition values at different compound concentrations by non-linear regression analysis.
Test compounds were dissolved in DMSO (10 mM) and transferred into 1.4 mL flat bottom or V-shaped Matrix tubes carrying a unique 2D matrix. The stock solutions were stored at […] if not used immediately. For the test procedure the vials were defrosted and identified by a scanner whereby a working sheet was generated that guided the subsequent working steps. Compound dilutions were made in 96 well plates. This format enabled the assay of maximally […] at 8 concentrations (single points) including 4 reference compounds, if desired (known BET inhibitors from the prior art, for this and other assays of the type disclosed herein). The dilution protocol included the production of “pre-dilution plates”, “master plates” and “assay plates”.
Polypropylene 96-well plates were used as pre-dilution plates. A total of 4 pre-dilution plates were prepared including 10 test compounds each on the plate positions A1-A10, one standard compound at A11 and one DMSO control at […]. All dilution steps were done on a HamiltonSTAR robot.
30 μL of individual compound dilutions including standard compound and controls of the 4 “pre-dilution plates” were transferred into a 384-well “master plate” including the following concentrations 10000, […], 1000, 300, 100, 30, 10 and 3 μM, respectively in 90% of DMSO.
Identical “assay plates” were then prepared by pipetting 50 nL each of compound dilutions of the “master plates” into 384-well “assay plates” by means of a HummingBird 384-channel dispenser. These plates were used directly for the assay which was performed in a total volume of 13.55 μL.

The next experiment has as its system MV-4-11. Kind of experiment: Cell growth inhibition assay (CellTiter-Glo), MV-4-11. The format is cell-based, human. The following applies: MV-4-11 cells, 4 days; for GI50: Homo sapiens, MV4-11, 96 h, half-maximal growth inhibition; for MV-4-11 TGI: total growth inhibition. As to the method:
as §1, §2

For another experiment, the target named is BRD4 (Homo sapiens (Human), UniProt O60885). Kind of experiment: TR-FRET in-vitro binding assay for BRD4. The following applies: 45 nM His-Brd4(44-477), acetyl-histone H4 (AcK 5, 8, 12, 16) peptide. How it is done:
(§3) TR-FRET In-Vitro Binding Assays for BRD2, BRD3, and BRD4: All assays were performed in 384-well microtiter plates. […] Liquid handling and incubation steps were done on an Innovadyne Nanodrop Express equipped with a robotic arm (Thermo CatX, Perkin Elmer/Caliper Twister II) and an incubator (Liconic STX40, Thermo Cytomat 2C450). The assay plates were prepared by addition of 50 nl per well of compound solution in 90% DMSO HummingBird nanodispenser (Zinsser Analytic). […] Reactions were incubated at 30° C. for 35 minutes. […] After 35 minutes incubation at 30° C., plates were measured in a Perkin Elmer EnVision multilabel reader. […] The stock solutions were stored at […] if not used immediately. For the test procedure the vials were defrosted and identified by a scanner whereby a working sheet was generated that guided the subsequent working steps. Compound dilutions were made in 96 well plates. This format enabled the assay of maximally […] at 8 concentrations (single points) including 4 reference compounds, if desired (known BET inhibitors from the prior art, for this and other assays of the type disclosed herein). The dilution protocol included the production of “pre-dilution plates”, “master plates” and “assay plates”. Polypropylene 96-well plates were used as pre-dilution plates. […] All dilution steps were done on a HamiltonSTAR robot. […] Identical “assay plates” were then prepared by pipetting 50 nL each of compound dilutions of the “master plates” into 384-well “assay plates” by means of a HummingBird 384-channel dispenser. These plates were used directly for the assay which was performed in a total volume of 13.55 μL.
Background: TR-FRET usually uses a lanthanide donor and a delayed reading to cut background.

A further experiment deals with BRD3 (Homo sapiens (Human), UniProt Q15059). Put plainly: TR-FRET in-vitro binding assay for BRD3. The following applies: 45 nM His-Brd3(20-477), acetyl-histone H4 (AcK 5, 8, 12, 16) peptide. How it is done: as §3
Another experiment concerns THP-1. Put plainly: Cell growth inhibition assay (CellTiter-Glo), THP-1. In kind it is cell-based, human. The following applies: THP-1 cells, 4 days; for GI50: Homo sapiens, 96 h, half-maximal growth inhibition; for THP-1 TGI: total growth inhibition. As to the method:
as §1, §2

Chain of BRD3 (Q15059 20-477): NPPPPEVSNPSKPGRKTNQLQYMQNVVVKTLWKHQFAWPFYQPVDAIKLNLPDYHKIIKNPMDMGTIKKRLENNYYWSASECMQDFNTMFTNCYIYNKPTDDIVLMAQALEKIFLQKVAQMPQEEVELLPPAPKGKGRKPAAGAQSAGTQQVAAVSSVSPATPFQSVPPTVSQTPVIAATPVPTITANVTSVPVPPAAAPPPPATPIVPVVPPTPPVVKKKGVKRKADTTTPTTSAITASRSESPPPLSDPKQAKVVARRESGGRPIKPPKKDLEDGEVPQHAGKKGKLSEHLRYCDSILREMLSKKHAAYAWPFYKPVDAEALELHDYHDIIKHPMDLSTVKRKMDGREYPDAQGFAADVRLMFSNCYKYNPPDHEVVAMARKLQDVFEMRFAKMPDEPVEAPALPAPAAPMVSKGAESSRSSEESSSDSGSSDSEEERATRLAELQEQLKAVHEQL
Chain of CREBBP (Q92793 1081-1197): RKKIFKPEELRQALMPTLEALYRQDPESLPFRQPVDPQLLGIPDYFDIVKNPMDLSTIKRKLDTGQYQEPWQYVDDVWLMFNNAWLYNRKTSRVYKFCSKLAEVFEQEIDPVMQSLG

For the compound `Cc1cc(N2C(=O)c3cc(C4=CCOCC4)n(C)c3C2c2ccc(Cl)cc2)cn2c(C)nnc12` (stereo in doubt) [Example 137, (R)-6-(4-chlorophenyl)-2-(3,6-dihydro-2H-pyran-4-yl)-5-(3,8-dimethyl-[1,2,4]triazolo[4,3-a]pyridin-6-yl)-1-methyl-5,6-dihydropyrrolo[3,4-b]pyrrol-4(1H)-one], the GI50 with K-562 came to 0.0311 µM; with MV-4-11, 0.01 µM; with THP-1, 0.0111 µM. In the experiment with K-562, the “K-562 TGI” value is over 10 µM. Moreover, the IC50 on CREBBP is 0.59 µM; at BRD4, under 0.011 µM; at BRD3, 0.013 µM. In the experiment with MV-4-11, the “MV-4-11 TGI” value was determined as 0.01875 µM. Besides, in the experiment on THP-1, the “THP-1 TGI” value is 0.02275 µM.

For `CNC(=O)c1cn(C)c2c1C(=O)N(c1cc(C)c3nnn(C)c3c1)C2c1ccc(Cl)cc1` (stereo not drawn) [Example 98, 6-(4-chlorophenyl)-5-(1,4-dimethyl-1H-benzo[d][1,2,3]triazol-6-yl)-N,1-dimethyl-4-oxo-1,4,5,6-tetrahydropyrrolo[3,4-b]pyrrole-3-carboxamide], the 50% growth inhibitory concentration (GI50) in the experiment with K-562 is 0.0373 µM; in the experiment on MV-4-11 it was 0.00495 µM; in the experiment with THP-1, 0.00557 µM. Besides, the “K-562 TGI” value with K-562 was over 8.2 µM. The IC50 at CREBBP is 6.7 µM; on BRD4, under 0.011 µM; on BRD3, 0.012 µM. In the experiment with MV-4-11, the “MV-4-11 TGI” value came to 0.01253 µM. Besides, the “THP-1 TGI” value in the experiment with THP-1 came out at 0.01597 µM.

Turning to `Cc1cn(C)c2c1C(=O)N(c1cc(C)c3nnc(C(F)F)n3c1)C2c1ccc(Cl)cc1` (stereo not drawn) [Example 107, 6-(4-chlorophenyl)-5-(3-(difluoromethyl)-8-methyl-[1,2,4]triazolo[4,3-a]pyridin-6-yl)-1,3-dimethyl-5,6-dihydropyrrolo[3,4-b]pyrrol-4(1H)-one], the GI50 with K-562 was 0.197 µM; in the experiment with MV-4-11, 0.0072 µM; in the experiment with THP-1, 0.0154 µM. In the experiment on K-562, the “K-562 TGI” value is over 10 µM. Further, the IC50 at CREBBP is 27.9 µM; at BRD4, 0.017 µM; at BRD3 it was 0.021 µM. The “MV-4-11 TGI” value in the experiment on MV-4-11 worked out at 0.02295 µM. The “THP-1 TGI” value in the experiment on THP-1 worked out at 0.022 µM.

For `CNC(=O)c1cn(C)c2c1C(=O)N(c1cc(C)c3nnc(C(F)F)n3n1)C2c1ccc(Cl)cc1` (stereo not drawn) [Example 108, 6-(4-chlorophenyl)-5-(3-(difluoromethyl)-8-methyl-[1,2,4]triazolo[4,3-b]pyridazin-6-yl)-N,1-dimethyl-4-oxo-1,4,5,6-tetrahydropyrrolo[3,4-b]pyrrole-3-carboxamide], the GI50 was determined as 0.322 µM in the experiment on K-562, 0.0432 µM in the experiment with MV-4-11 and 0.0323 µM with THP-1. In addition, the “K-562 TGI” value in the experiment with K-562 was over 10 µM. Besides, the IC50 on CREBBP was over 37 µM; at BRD4, 0.016 µM; on BRD3, 0.019 µM. In the experiment on MV-4-11, the “MV-4-11 TGI” value was 0.07835 µM. Further, in the experiment on THP-1, the “THP-1 TGI” value worked out at 0.07275 µM.

Take `CC(=O)Nc1cn(C)c2c1C(=O)N(c1cc(C)c3nnc(C(F)F)n3n1)C2c1ccc(Cl)cc1` (stereo not drawn) [Example 109, N-(6-(4-chlorophenyl)-5-(3-(difluoromethyl)-8-methyl-[1,2,4]triazolo[4,3-b]pyridazin-6-yl)-1-methyl-4-oxo-1,4,5,6-tetrahydropyrrolo[3,4-b]pyrrol-3-yl)acetamide]: the GI50 was found to be 0.114 µM in the experiment on K-562, 0.0194 µM in the experiment with MV-4-11 and 0.0173 µM in the experiment with THP-1. In addition, the “K-562 TGI” value in the experiment with K-562 was over 10 µM. Besides, the IC50 on CREBBP is over 37 µM; at BRD4, 0.023 µM; at BRD3, 0.02 µM. The “MV-4-11 TGI” value in the experiment on MV-4-11 worked out at 0.04075 µM. Besides, the “THP-1 TGI” value with THP-1 is 0.0386 µM.

What is called GI50 is the concentration giving 50% growth inhibition. Read a low GI50 as more potent growth inhibition. By IC50 is commonly meant the concentration that inhibits the measured activity by half. Read a high IC50 as lower potency.

The record behind these values is patent publication US9550796B2, “Pyrrolopyrrolone derivatives and their use as BET inhibitors” (NOVARTIS AG, priority 2013, dated 2017).
